Assay results: PubChem BioAssay AID1963982 (Molecular Pharmacology Branch, DTP, NCI, 2024)

Tested on: 313798-341-R-J2-PDC spheroids, viability
Experiment: Anticancer human tumor 313798-341-R-J2-PDC patient-derived cervical squamous cell carcinoma cell line growth inhibition [PI3K]
Conditions: spheroids with HUVEC and MSC; for IC50: curve of first compound; for viability, T/C: stronger effect = lower value; active = viability on the fitted dose curve at most 10% of control; inactive = the rest
Procedure, shortened: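 Tumor cells grown as multi-cell spheroids with HUVEC endothelial cells and MSC fibroblast-like stroma were treated with targeted agents combined with inavolisib, alpelisib, duvelisib or copanlisib. Doses fell in half-log steps from near clinical Cmax, else from 10 microM. Viability was measured.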

[1] = second compound 0.0316 µM, first compound 0.0316 µM
[2] = second compound 0.0316 µM, first compound 0.1 µM
[3] = second compound 0.0316 µM, first compound 0.316 µM
[4] = second compound 0.0316 µM, first compound 1 µM
[5] = second compound 0.0316 µM, first compound 3.16 µM
[6] = second compound 0.0316 µM, first compound 10 µM
[7] = second compound 0.1 µM, first compound 0.0316 µM
[8] = second compound 0.1 µM, first compound 0.1 µM
[9] = second compound 0.1 µM, first compound 0.316 µM
[10] = second compound 0.1 µM, first compound 1 µM
[11] = second compound 0.1 µM, first compound 3.16 µM
[12] = second compound 0.1 µM, first compound 10 µM
[13] = second compound 0.316 µM, first compound 0.0316 µM
[14] = second compound 0.316 µM, first compound 0.1 µM
[15] = second compound 0.316 µM, first compound 0.316 µM
[16] = second compound 0.316 µM, first compound 1 µM
[17] = second compound 0.316 µM, first compound 3.16 µM
[18] = second compound 0.316 µM, first compound 10 µM
[19] = second compound 1 µM, first compound 0.0316 µM
[20] = second compound 1 µM, first compound 0.1 µM
[21] = second compound 1 µM, first compound 0.316 µM
[22] = second compound 1 µM, first compound 1 µM
[23] = second compound 1 µM, first compound 3.16 µM
[24] = second compound 1 µM, first compound 10 µM
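Note: spheroids exposed to compounds for seven days.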
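Throughout, for viability, T/C: 100% = DMSO vehicle control viability.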

CC1(C)CCC(CN2CCN(c3ccc(C(=O)NS(=O)(=O)c4ccc(NCC5CCOCC5)c([N+](=O)[O-])c4)c(Oc4cnc5[nH]ccc5c4)c3)CC2)=C(c2ccc(Cl)cc2)C1 + CC(Nc1ncnc2nc[nH]c12)c1cc2cccc(Cl)c2c(=O)n1-c1ccccc1
7.56 µM: IC50 (second compound 3.16 µM)
9.89 µM: IC50 (second compound 0.1 µM)
9.97 µM: IC50 (second compound 0.316 µM)
6.37 µM: IC50 (second compound 10 µM)
9.98 µM: IC50 (second compound 1 µM)
inactive: viability, T/C [1] 104% | viability, T/C [2] 86.6% | viability, T/C [3] 107% | viability, T/C [4] 99.5% | viability, T/C [5] 85.2% | viability, T/C [6] 43.6% | viability, T/C [7] 91.6% | viability, T/C [8] 108% | viability, T/C [9] 85.4% | viability, T/C [10] 89.2% | viability, T/C [11] 84.8% | viability, T/C [12] 49.1% | viability, T/C [13] 99.4% | viability, T/C [14] 101% | viability, T/C [15] 102% | viability, T/C [16] 102% | viability, T/C [17] 82.4% | viability, T/C [18] 50% | viability, T/C [19] 103% | viability, T/C [20] 100% | viability, T/C [21] 94.5% | viability, T/C [22] 96.8% | viability, T/C [23] 74.4% | viability, T/C [24] 49.9% | viability, T/C (second compound 3.16 µM, first compound 0.0316 µM) 103% | viability, T/C (second compound 3.16 µM, first compound 0.1 µM) 95.3% | viability, T/C (second compound 3.16 µM, first compound 0.316 µM) 85.2% | viability, T/C (second compound 3.16 µM, first compound 1 µM) 89.8% | viability, T/C (second compound 3.16 µM, first compound 3.16 µM) 79.8% | viability, T/C (second compound 3.16 µM, first compound 10 µM) 40.5% | viability, T/C (second compound 10 µM, first compound 0.0316 µM) 82.1% | viability, T/C (second compound 10 µM, first compound 0.1 µM) 78.8% | viability, T/C (second compound 10 µM, first compound 0.316 µM) 87% | viability, T/C (second compound 10 µM, first compound 1 µM) 78.1% | viability, T/C (second compound 10 µM, first compound 3.16 µM) 62.3% | viability, T/C (second compound 10 µM, first compound 10 µM) 42.1%
8.41 µM: IC50 (second compound 0.0316 µM)

CC1(C)CCC(Nc2ncc(C(F)(F)F)c(-c3c[nH]c4c(P(C)(C)=O)c(C#N)ccc34)n2)CN1 (centres undefined)
inactive: viability, T/C (compound 0.0316 µM) 56.6% [middle of 4 runs] | viability, T/C (compound 0.1 µM) 46.7% [middle of 4 runs] | viability, T/C (compound 0.316 µM) 50.4% [middle of 4 runs] | viability, T/C (compound 1 µM) 53.8% [middle of 4 runs] | viability, T/C (compound 3.16 µM) 58.9% [middle of 4 runs]

Cn1nccc1Nc1nccc(-c2ccn(C(CO)c3ccc(Cl)c(F)c3)c(=O)c2)n1 (centres undefined) + COc1c(OCCCN2CCOCC2)ccc2c3n(c(=NC(=O)c4cnc(N)nc4)nc12)CCN3
< 0.0316 µM: IC50 (second compound 0.1 µM) | IC50 (second compound 0.316 µM) | IC50 (second compound 1 µM)
inactive: viability, T/C (second compound 0.00316 µM, first compound 0.0316 µM) 100% | viability, T/C (second compound 0.00316 µM, first compound 0.1 µM) 97% | viability, T/C (second compound 0.00316 µM, first compound 0.316 µM) 106% | viability, T/C (second compound 0.00316 µM, first compound 1 µM) 111% | viability, T/C (second compound 0.00316 µM, first compound 3.16 µM) 102% | viability, T/C (second compound 0.00316 µM, first compound 10 µM) 90.1% | viability, T/C (second compound 0.01 µM, first compound 0.0316 µM) 104% | viability, T/C (second compound 0.01 µM, first compound 0.1 µM) 108% | viability, T/C (second compound 0.01 µM, first compound 0.316 µM) 97.8% | viability, T/C (second compound 0.01 µM, first compound 1 µM) 106% | viability, T/C (second compound 0.01 µM, first compound 3.16 µM) 94% | viability, T/C (second compound 0.01 µM, first compound 10 µM) 89.5% | viability, T/C [1] 75.8% | viability, T/C [2] 83.2% | viability, T/C [3] 69.5% | viability, T/C [4] 77.1% | viability, T/C [5] 66.5% | viability, T/C [6] 55.6% | viability, T/C [7] 38.2% | viability, T/C [8] 43.3% | viability, T/C [9] 41% | viability, T/C [10] 38.4% | viability, T/C [11] 34.7% | viability, T/C [12] 32% | viability, T/C [13] 16.6% | viability, T/C [14] 15.3% | viability, T/C [15] 12.2% | viability, T/C [16] 9.87% | viability, T/C [19] 10.9%
> 10 µM: IC50 (second compound 0.00316 µM) | IC50 (second compound 0.01 µM) | IC50 (second compound 0.0316 µM)
active: viability, T/C [17] 9.43% | viability, T/C [18] 7.53% | viability, T/C [20] 9.68% | viability, T/C [21] 7.11% | viability, T/C [22] 5.54% | viability, T/C [23] 4.07% | viability, T/C [24] 2.53%
